Measurements: patent US6689762B1, “Composition and methods for treatment of HIV infection” (Enzon Pharmaceuticals, Inc., priority 1998, dated 2004)
Several values for one entry are separate records, joined by “and”; a condition that tells them apart may be missing. Identical values can stand only once.

How the values were obtained:
[1] = test system: HIV-RT levels of HIV-1 infected CEM/0 cell pellets; test: HIV-RT ELISA (Reverse Transcriptase Assay, non-radioactive) in cell pellets of HIV-1 infected CEM/0 T-cells; type: cell-based; parameters: % of control (of RANGE) / % of control (of MEAN): concentration or dose not given beside the values; conditions: for MEAN (HIV-RT): Table 5, three wells; for % of control (of RANGE): * single point determination; for MEAN X3 (HIV-RT): Table 9
Text: The following is a general procedure for the HIV-reverse transcriptase assay:
The cell line used for these studies is CCRF/CEM/O, a human T-leukemic cell line. PEG-ASNase (ONCASPAR) is provided by Rhone-Poulenc Rorer. Saquinavir is commercially available. RPMI-1640 media (Irvine Scientific, Irvine, Calif.) is enriched with 10% Fetal Calf Serum (Gemini Biosource, Calabasas, Calif.), 5% 1M Hepes Buffer solution and 5% Non-essential amino acids (Irvine Scientific, Irvine, Calif.). The drug concentrations used are as follows:
Briefly, 2×10^6 cells/ml are stimulated with PHA+ media for 48 hours at 37° C. with 5% CO2. Also, the same number of cells are incubated in PHA(phytohemagglutinin) free media for 48 hours to serve as the negative control. At this point the cells are inoculated with the HIV-1 virus as per standard protocol. PEG-ASNase and/or Saquinavir are added to the cells in the appropriate concentrations (see above). The control cells are resuspended in drug-free media for the duration of the exposure which lasted seven days. At day five, two 1 ml aliquots of media are removed from the flasks and stored under liquid nitrogen. At day seven, two more 1 ml aliquots of media are removed from the flasks and stored under liquid nitrogen. In addition, the remaining cells are pelleted and stored at −80° C.
The samples produced from this experiment are itemized and then assayed for HIV-RT using the Reverse Transcriptase Assay, non-radioactive (Boehringer Mannheim). The standard curve is determined and the HIV-RT levels for the experimental samples are calculated.
This experiment is carried out using a similar procedure, and the same concentrations of materials as in Experiment 7, however the exposure of the HIV virus in T-cell pellets to PEG-ASNase and Saquinavir alone, and in combination is measured. It should be noted that “PEG” in Table 2a represents PEG-ASNase. […]

CEM/0 cells [2] = test: cells; type: cell-based, human; conditions: for IC50: Homo sapiens, CCRF-CEM
Text: A human leukemic T-cell line, hereafter referred to as CEM/0 is used for this experiment. PEG-ASNase is obtained from Rhone-Poulenc Rorer Pharmaceuticals Inc under the tradename Oncaspar®. Saquinavir is obtained from Roche Laboratories under the tradename Invirase™. RPMI-1640 media obtained from Irvine Scientific, Irvine Calif. is enriched with 10% Fetal Calf Serum obtained from Gemini Biosource, Calabasas, Calif., 5% 1M Hepes buffer solution and 5% non-essential amino acids obtained from Irvine Scientific, Irvine Calif.
An experiment is carried out to determine the cytotoxicity of Saquinavir and PEG-ASNase. For determining the cytotoxicity of either compound alone, 2×10^5 cells/ml are incubated in 24-well plates with the following drug concentrations:
(§1) In all in vitro studies, the negative control cells are incubated in a drug-free media for the same duration and under the same conditions as the experimental samples. Cell density is measured via cell counting using a Coulter Counter coupled with a Coulter Channelyzer for each of the experimental flasks at 24, 48 and 72 hours after incubation. Additionally, Trypan Blue Exclusion tests are performed for each of these experimental conditions. Cell numbers are corrected for the viability determined by the Trypan Blue test and presented as a percentage of the untreated control.

CEM/0 cells [3] = test: Sequential and concurrent combination cytotoxicity of PEG-ASNase and Saquinavir; type: cell-based, human; conditions: CEM/0 T-cells
Description: In this experiment, the described range of concentrations is used to investigate the combined regimen of Saquinavir and PEG-ASNase. For the sequential combination studies of PEG-ASNase followed by Saquinavir, cells are incubated with the concentrations provided below of PEG-ASNase for 24 hours. Then Saquinavir, in the concentrations provided below, is added to the appropriate cells for an additional twenty-four (24) hours, bringing the total exposure time to forty-eight (48) hours. The exposure involved 2×10^5 cells/ml being incubated in a tissue culture flask with concentrations of the drugs investigated as provided below. […] The drug concentrations used are as follows:
as §1
The reverse sequence is also tested. […] Saquinavir is administered and the cells incubated for twenty-four (24) hours followed by addition of PEG-ASNase and an additional incubation period of twenty-four (24) hours, bringing the total exposure time to forty-eight (48) hours. Other than the drug sequence, the methodology is the same as that mentioned immediately above. The concurrent combination regimen is also tested using the same methodology. […] The concurrent combined methodology experiment had the samples exposed to forty-eight (48) hours of concurrent combined exposure.

[4] = test system: asparagine, glutamine, and aspartic acid levels of CEM/0 cells; test: Determination of amino acid levels after PEG-ASNase exposure (HPLC); type: cell-based, human; conditions: 24 hours exposure
Description: Experiments to determine the amino acid level in cell suspensions and cell media are performed to determine the effect of PEG-ASNase on the amino acid levels, particularly the levels of asparagine, glutamine, and aspartic acid.
Samples of 50 μl media and 10 μl of 1 mM aminoadopic acid are added to 450 μl of cold methanol in 1.5 ml microfuge tubes. The mixtures are vortexed and centrifuged at 8700 g for two minutes. The supernatants are transferred to borosilicate glass test tubes (13×100 mm) and lyophilized. The specimens are stored at −20° C. until they are analyzed by HPLC. Prior to HPLC analysis, the samples are dissolved in a buffer containing 95% […] disodium hydrogen phosphate and 5% acetonitrile.

[5] = Experiment 7, monotherapy at IC50 concentrations or combination
[6] = Experiment 10 (3TC) text, cell pellets
[7] = Table 9, per well, listed as SAQ
[8] = Table 2a, per flask, listed as PEG
[9] = Table 9, per well, listed as PEG

Cc1cn([C@H]2C[C@H](N=[N+]=[N-])[C@@H](CO)O2)c(=O)[nH]c1=O [AZT, zidovudine]
inhibition of HIV-RT ([1]; Experiment 7, cell pellets): most dramatic inhibition | % of control (of MEAN) ([1]; Table 5): 0% | HIV-RT ([1]; Table 5, per well, negative values set to 0): 0 pg/well | MEAN (HIV-RT) [1]: 0 pg/well | % of control (of RANGE) ([1]; Table 5): 0% | MEAN X3 (HIV-RT) [1]: 0 ng/well | HIV-RT (negative values set to 0) ([1]; Table 9, per well): 0 ng/well

CC(C)(C)NC(=O)[C@@H]1C[C@@H]2CCCC[C@@H]2CN1C[C@@H](O)[C@H](Cc1ccccc1)NC(=O)[C@H](CC(N)=O)NC(=O)c1ccc2ccccc2n1 [Saquinavir]
inhibition of HIV-RT in comparison with the control ([1]; Experiment 5a text, combination at synergistically reduced concentrations): approximately 15% | inhibition of HIV-RT [1, 5]: 83% | inhibition of HIV-RT [1, 6]: some inhibition | group mean (X2/X3) +/- S.D. ([1]; Table 2a): X2 = 31.10 +/− 4.67 pg/well, % CV = 15.01% | % of control (of MEAN) ([1]; Table 5): 12.7% | MEAN (HIV-RT) [1]: 0.016 pg/well | % of control (of RANGE) ([1]; Table 5): 12.7% | MEAN X3 (HIV-RT) [1]: 0.022 ng/well | HIV-RT [1, 7]: 0.021 ng/well and 0.023 ng/well | HIV-RT (negative values set to 0) [1, 7]: 0.021 ng/well and 0.023 ng/well | IC50 (CEM/0 cells [2]; 72 h, read-out: IC50 in CEM/0 cells): 26 µM | IC50 (CEM/0 cells [2]; read-out: IC50 in CEM/0 cells): 21 to 28 µM | IC50 (CEM/0 cells [2]; read-out: Saquinavir IC50 alone): 25 µM | kill compared to untreated control (CEM/0 cells [2]; Saquinavir 10 μM): 8.76% | kill compared to control cells (CEM/0 cells [2]; Saquinavir 100 μM, highest concentration tested): 99.50% | cell kill (CEM/0 cells [2]; Saquinavir 0.001 to 1 μM): no cell kill | IC50 (CEM/0 cells [3]; Homo sapiens, CCRF-CEM, read-out: IC50 in combination, Saquinavir part, concurrent combination of PEG-ASNase and Saquinavir): 14.5 µM | IC50 (CEM/0 cells [3]; read-out: IC50 in combination, Saquinavir part, concurrent combination of PEG-ASNase and Saquinavir, listed as SAQ): 14.5 µM

B1: PEG-ASNase: asparaginase conjugated with polyethylene glycol (PEG); sold under the name ONCASPAR by Rhône-Poulenc Rorer (conjugate, UniProt P00805 23-348, looked up)
L-asparaginase 2: LPNITILATGGTIAGGGDSATKSNYTVGKVGVENLVNAVPQLKDIANVKGEQVVNIGSQDMNDNVWLTLAKKINTDCDKTDGFVITHGTDTMEETAYFLDLTVKCDKPVVMVGAMRPSTSMSADGPFNLYNAVVTAADKASANRGVLVVMNDTVLDGRDVTKTNTTDVATFKSVNYGPLGYIHNGKIDYQRTPARKHTSDTPFDVSKLNELPKVGIVYNYANASDLPAKALVDAGYDGIVSAGVGNGNLYKSVFDTLATAAKTGTAVVRSSRVPTGATTQDAEVDDAKYGFVASGTLNPQKARVLLQLALTQTKDPQQIQQIFNQY
modifications: PEG conjugate (pegaspargase)
notes: asparaginase conjugated with polyethylene glycol (PEG); sold under the name ONCASPAR by Rhône-Poulenc Rorer
inhibition of intracellular HIV-RT as compared to untreated control ([1]; Example 1, day 7 pellets, PEG-ASNase 0.4 IU/ml, Saquinavir 25 μM, combination 0.233 IU/ml + 14.5 μM): about 30% | effect in inhibiting HIV-RT ([1]; Experiment 5a, day 7): moderate effect | inhibition of HIV-RT [1, 5]: 54% | inhibition of HIV-RT [1, 6]: some inhibition | group mean (X2/X3) +/- S.D. ([1]; Table 2a): X3 = 68.43 +/− 11.26 pg/well, % CV = 16.45% | % cont. [1, 8]: 79.9% and 68.0% and 57.4% | HIV-RT [1, 8]: 0.330 pg/well and 0.281 pg/well and 0.237 pg/well | % of control (of MEAN) ([1]; Table 5): 46.03% | RANGE (HIV-RT, low or zero wells left out) ([1]; Table 5): 0.085 pg/well | MEAN (HIV-RT) [1]: 0.058 pg/well | % of control (of RANGE) ([1]; Table 5): 67.46% | MEAN X3 (HIV-RT) [1]: 0.159 ng/well | HIV-RT [1, 9]: 0.201 ng/well and 0.142 ng/well and 0.133 ng/well | HIV-RT (negative values set to 0) [1, 9]: 0.201 ng/well and 0.142 ng/well and 0.133 ng/well | PEG-ASNase IC50 alone (CEM/0 cells [2]; CEM/0 T-cells, single agent): 0.4 IU/ml and 0.40 IU/ml | concentration that produces a cytostatic condition (CEM/0 cells [2]; CEM/0 cells in vitro, over 72 hours): approximately 0.5 IU/ml | effect on cell growth (CEM/0 cells [2]; PEG-ASNase 0.03, 0.1, 0.2, 0.3 and 0.4 IU/ml, compared to control growth rate): marginally effective in preventing cell growth | glutamine level, % of the untreated control ([4]; highest PEG-ASNase concentration): less than 3.0% | asparagine level, % of the untreated control ([4]; various PEG-ASNase concentrations): less than 3.0% | IC50 in combination, PEG-ASNase part (CEM/0 cells [3]; concurrent combination of PEG-ASNase and Saquinavir): 0.233 IU/ml | IC50 in combination, PEG-ASNase part (CEM/0 cells [3]; concurrent combination of PEG-ASNase and Saquinavir, listed as PEG): 0.23 IU/ml
